Measured values from publication PMC8330742, “New benzothieno[2,3-c]pyridines as non-steroidal CYP17 inhibitors: design, synthesis, anticancer screening, apoptosis induction, and in silico ADME profile studies” (Journal of Enzyme Inhibition and Medicinal Chemistry, 2021).

How the values were obtained:
HT-29 = test: NCI-60 SRB screen; type: cell-based; conditions: Homo sapiens; single dose 10^−5 M; HT-29, Colon cancer; read-out: Growth inhibition (%)
HCC-2998 = test: NCI-60 SRB screen; type: cell-based, human; conditions: Homo sapiens; single dose 10^−5 M; HCC-2998, Colon cancer; read-out: Growth inhibition (%)
SW-620 = test: NCI-60 SRB screen; type: cell-based; conditions: Homo sapiens; single dose 10^−5 M; SW-620, Colon cancer; read-out: Growth inhibition (%)
SR = test: NCI-60 SRB screen; type: cell-based; conditions: Homo sapiens, single dose 10^−5 M, Leukaemia, read-out: Growth inhibition (%)
IGROV1 = test: NCI-60 SRB screen; type: cell-based, human; conditions: Homo sapiens, IGROV-1; single dose 10^−5 M; IGROV1, Ovarian cancer; read-out: Growth inhibition (%)
COLO 205 = test: NCI-60 SRB screen; type: cell-based, human; conditions: Homo sapiens; single dose 10^−5 M; COLO 205, Colon cancer; read-out: Growth inhibition (%)
MOLT-4 = test: NCI-60 SRB screen; type: cell-based; conditions: Homo sapiens; single dose 10^−5 M; MOLT-4, Leukaemia; read-out: Growth inhibition (%)
[1] = system: panel of 60 cancer cell lines; test: NCI-60 SRB screen, mean or range over the panel; type: cell-based, human; conditions: Homo sapiens; mean over the cell lines; single dose 10^−5 M; read-out: Mean growth inhibition (%)
CAKI-1 = test: NCI-60 SRB screen; type: cell-based, human; conditions: Homo sapiens; single dose 10^−5 M; CAKI-1, Renal cancer; read-out: Growth inhibition (%)
EKVX = test: NCI-60 SRB screen; type: cell-based, human; conditions: Homo sapiens, single dose 10^−5 M, Non-small cell lung carcinoma, read-out: Growth inhibition (%)
ACHN = test: NCI-60 SRB screen; type: cell-based; conditions: Homo sapiens, single dose 10^−5 M, Renal cancer, read-out: Growth inhibition (%)
786-0 = test: NCI-60 SRB screen; type: cell-based; conditions: Homo sapiens; single dose 10^−5 M; 786-0, Renal cancer; read-out: Growth inhibition (%)
HCT-15 = test: NCI-60 SRB screen; type: cell-based, human; conditions: Homo sapiens; single dose 10^−5 M; HCT-15, Colon cancer; read-out: Growth inhibition (%)
SN12C = test: NCI-60 SRB screen; type: cell-based, human; conditions: Homo sapiens, SN12C; single dose 10^−5 M; SN 12 C, Renal cancer; read-out: Growth inhibition (%)
NCI-H460 = test: NCI-60 SRB screen; type: cell-based, human; conditions: Homo sapiens; single dose 10^−5 M; NCI-H460, Non-small cell lung carcinoma; read-out: Growth inhibition (%)
MDA-MB-435 = test: NCI-60 SRB screen; type: cell-based; conditions: Homo sapiens, MDA-MB-435, read-out: Growth inhibition (%)
OVCAR-4 = test: NCI-60 SRB screen; type: cell-based, human; conditions: Homo sapiens; single dose 10^−5 M; OVCAR-4, Ovarian cancer; read-out: Growth inhibition (%)
SK-MEL-2 = test: NCI-60 SRB screen; type: cell-based, human; conditions: Homo sapiens; single dose 10^−5 M; SK-MEL-2, Melanoma; read-out: Growth inhibition (%)
K-562 = test: NCI-60 SRB screen; type: cell-based, human; conditions: Homo sapiens, K562; single dose 10^−5 M; K-562, Leukaemia; read-out: Growth inhibition (%)
SK-OV-3 = test: NCI-60 SRB screen; type: cell-based, human; conditions: Homo sapiens; single dose 10^−5 M; SK-OV-3, Ovarian cancer; read-out: Growth inhibition (%)
KM12 = test: NCI-60 SRB screen; type: cell-based, human; conditions: Homo sapiens; single dose 10^−5 M; KM12, Colon cancer; read-out: Growth inhibition (%)
UACC-62 = test: NCI-60 SRB screen; type: cell-based, human; conditions: Homo sapiens; single dose 10^−5 M; UACC-62, Melanoma; read-out: Growth inhibition (%)
HOP-92 = test: NCI-60 SRB screen; type: cell-based, human; conditions: Homo sapiens; single dose 10^−5 M; HOP-92, Non-small cell lung carcinoma; read-out: Growth inhibition (%)
NCI-H322M = test: NCI-60 SRB screen; type: cell-based, human; conditions: Homo sapiens, single dose 10^−5 M, Non-small cell lung carcinoma, read-out: Growth inhibition (%)
RXF 393 = test: NCI-60 SRB screen; type: cell-based, human; conditions: Homo sapiens; single dose 10^−5 M; RXF 393, Renal cancer; read-out: Growth inhibition (%)
NCI-H226 = test: NCI-60 SRB screen; type: cell-based, human; conditions: Homo sapiens; single dose 10^−5 M; NCI-H226, Non-small cell lung carcinoma; read-out: Growth inhibition (%)
HCT-116 = test: NCI-60 SRB screen; type: cell-based, human; conditions: Homo sapiens; single dose 10^−5 M; HCT-116, Colon cancer; read-out: Growth inhibition (%)
NCI-H23 = test: NCI-60 SRB screen; type: cell-based, human; conditions: Homo sapiens; single dose 10^−5 M; NCI-H23, Non-small cell lung carcinoma; read-out: Growth inhibition (%)
SF-268 = test: NCI-60 SRB screen; type: cell-based, human; conditions: Homo sapiens; single dose 10^−5 M; SF-268, CNS cancer; read-out: Growth inhibition (%)
OVCAR-3 = test: NCI-60 SRB screen; type: cell-based, human; conditions: Homo sapiens; single dose 10^−5 M; OVCAR-3, Ovarian cancer; read-out: Growth inhibition (%)
OVCAR-8 = test: NCI-60 SRB screen; type: cell-based, human; conditions: Homo sapiens; single dose 10^−5 M; OVCAR-8, Ovarian cancer; read-out: Growth inhibition (%)
TK-10 = test: NCI-60 SRB screen; type: cell-based, human; conditions: Homo sapiens; single dose 10^−5 M; TK-10, Renal cancer; read-out: Growth inhibition (%)
HOP-62 = test: NCI-60 SRB screen; type: cell-based, human; conditions: Homo sapiens; single dose 10^−5 M; HOP-62, Non-small cell lung carcinoma; read-out: Growth inhibition (%)
NCI-H522 = test: NCI-60 SRB screen; type: cell-based, human; conditions: Homo sapiens; single dose 10^−5 M; NCI-H522, Non-small cell lung carcinoma; read-out: Growth inhibition (%)
HL-60(TB) = test: NCI-60 SRB screen; type: cell-based, human; conditions: Homo sapiens; single dose 10^−5 M; HL-60(TB), Leukaemia; read-out: Growth inhibition (%)
M14 = test: NCI-60 SRB screen; type: cell-based, human; conditions: Homo sapiens; single dose 10^−5 M; M14, Melanoma; read-out: Growth inhibition (%)
UACC-257 = test: NCI-60 SRB screen; type: cell-based, human; conditions: Homo sapiens; single dose 10^−5 M; UACC-257, Melanoma; read-out: Growth inhibition (%)
SF-295 = test: NCI-60 SRB screen; type: cell-based, human; conditions: Homo sapiens; single dose 10^−5 M; SF-295, CNS cancer; read-out: Growth inhibition (%)
SK-MEL-5 = test: NCI-60 SRB screen; type: cell-based, human; conditions: Homo sapiens; single dose 10^−5 M; SK-MEL-5, Melanoma; read-out: Growth inhibition (%)
UO-31 = test: NCI-60 SRB screen; type: cell-based, human; conditions: Homo sapiens; single dose 10^−5 M; UO-31, Renal cancer; read-out: Growth inhibition (%)
NCI/ADR-RES = test: NCI-60 SRB screen; type: cell-based, human; conditions: Homo sapiens, single dose 10^−5 M, Ovarian cancer, read-out: Growth inhibition (%)
SK-MEL-28 = test: NCI-60 SRB screen; type: cell-based; conditions: Homo sapiens; single dose 10^−5 M; SK-MEL-28, Melanoma; read-out: Growth inhibition (%)
A549/ATCC = test: NCI-60 SRB screen; type: cell-based, human; conditions: Homo sapiens, single dose 10^−5 M, Non-small cell lung carcinoma, read-out: Growth inhibition (%)
LOX IMVI = test: NCI-60 SRB screen; type: cell-based, human; conditions: Homo sapiens, single dose 10^−5 M, Melanoma, read-out: Growth inhibition (%)

## O=[N+]([O-])c1cccc(C2NC(N3CCCCC3)=C(Cl)c3c2sc2c(F)cccc32)c1 (centres unmarked) [Compound 8c, 4-Chloro-3-(piperidin-1-yl)-8-fluoro-1-(3-nitrophenyl)-1,2-dihydro [1]benzothieno[2,3-c]pyridine]
HT-29
  inhibition at 10 µM: -2.62%
HCC-2998
  inhibition at 10 µM: -6.85%
SW-620
  inhibition at 10 µM: 1.71%
SR
  inhibition at 10 µM: 10.1%
IGROV1
  inhibition at 10 µM: 17.4%
COLO 205
  inhibition at 10 µM: -12.7%
MOLT-4
  inhibition at 10 µM: 35.6%
[1]
  inhibition at 10 µM: 7.22%
CAKI-1
  inhibition at 10 µM: 18.8%
EKVX
  inhibition at 10 µM: 19.1%
ACHN
  inhibition at 10 µM: 6.2%
786-0
  inhibition at 10 µM: -0.24%
HCT-15
  inhibition at 10 µM: 3.84%
SN12C
  inhibition at 10 µM: 3.66%
NCI-H460
  inhibition at 10 µM: 3%
MDA-MB-435
  inhibition at 10 µM: 2%
OVCAR-4
  inhibition at 10 µM: 12.3%
SK-MEL-2
  inhibition at 10 µM: 2.66%
K-562
  inhibition at 10 µM: 14.1%
SK-OV-3
  inhibition at 10 µM: 9.9%
KM12
  inhibition at 10 µM: 3.41%
UACC-62
  inhibition at 10 µM: 8.57%
HOP-92
  inhibition at 10 µM: 9.27%
NCI-H322M
  inhibition at 10 µM: -0.59%
RXF 393
  inhibition at 10 µM: -15.6%
NCI-H226
  inhibition at 10 µM: 28.2%
HCT-116
  inhibition at 10 µM: 1.95%
NCI-H23
  inhibition at 10 µM: 3.42%
SF-268
  inhibition at 10 µM: 6.19%
OVCAR-3
  inhibition at 10 µM: -1.68%
OVCAR-8
  inhibition at 10 µM: -6.18%
TK-10
  inhibition at 10 µM: -22.4%
HOP-62
  inhibition at 10 µM: 5.22%
NCI-H522
  inhibition at 10 µM: 17.7%
HL-60(TB)
  inhibition at 10 µM: 18.7%
M14
  inhibition at 10 µM: 1.39%
UACC-257
  inhibition at 10 µM: -10.3%
SF-295
  inhibition at 10 µM: -6.6%
SK-MEL-5
  inhibition at 10 µM: 0.27%
UO-31
  inhibition at 10 µM: 38%
NCI/ADR-RES
  inhibition at 10 µM: -2.62%
SK-MEL-28
  inhibition at 10 µM: -16.7%
A549/ATCC
  inhibition at 10 µM: 5.05%
LOX IMVI
  inhibition at 10 µM: -0.7%
